Reference: PMC12693182, “Synthesis and QSAR Studies of Claramine Derivatives, a New Class of Broad-Spectrum Antimicrobial Agents” (Molecules, 2025)
In brackets after ≈: the same amount, converted by molar mass. Like-named read-outs stand apart in the source and are kept apart here.

Legend:
[1] = system: E. coli ATCC 25922; experiment: MIC, broth microdilution; type: cell-based, Escherichia coli; settings: Escherichia coli, ATCC25922, 24 h, ATCC strain
Experimental: (§1) Antimicrobial activity of the compounds was studied by determination of minimal inhibitory concentrations (MIC) according to the NCCLS guidelines M7-A2 using the microbroth dilution methods. The bacteria strains were grown on trypticase soy agar (Becton Dickinson) at 37 °C for 24 h. Inocula were prepared in TCE (tryptone 0.1%, […], wt/vol) by ajusting the turbidity at 623 nm to obtain 1–3 10^5 CFU/mL.
(§2) Antimicrobial activities of the compounds were determined by using a broth microdilution method performed in sterile 96-well microplates. All compounds were solubilized in water at a concentration of 10 mM and were transferred to each microplate well in order to obtain a two-fold serial dilution in 100 µL of broth and 100 µL of inoculum containing 2–6 10^5 CFU of each bacterium were added to each well. Some wells were reserved for positive controls and inoculum viability.

[2] = system: E. coli 1956; experiment: MIC, broth microdilution; type: cell-based, Escherichia coli; settings: Escherichia coli, 1956, 24 h
Experimental: as §1, §2

[3] = system: S. intermedius 1051997; experiment: MIC, broth microdilution; type: cell-based, Staphylococcus intermedius; settings: Staphylococcus intermedius, 1051997, 24 h, 24 h
Experimental: as §1, §2

[4] = system: E. faecalis ATCC29212; experiment: MIC, broth microdilution; type: cell-based, Enterococccus faecalis; settings: Enterococcus faecalis, ATCC29212, 24 h, ATCC strain, read-out: MIC E. faecalis 29212
Experimental: as §1, §2

[5] = system: Chinese hamster Ovary cells (CHO-K1); experiment: Cytotoxicity assay (WST-1 / Neutral Red); type: cell-based; settings: 24-h incubation; for IC50: Cricetulus griseus, 24 h
Experimental: The cytotoxic activities of compounds were assessed on Chinese hamster Ovary cells (CHO-K1) provided from ATCC-LGC Standards Sarl (Molsheim, France). Cells were maintained in Mc Coy’s 5A (CHO) medium supplemented with 10% bovine calf serum, 2 mM glutamine, and 100 U mL^−1/10 µg mL^−1 penicillin/streptomycin mixtures. For the cytotoxicity experiments, they were seeded in 96-well plates and incubated at 37 °C in humidified atmosphere containing 5% CO2 overnight, then concentrations of compounds were incorporated in triplicate cultures. After a 24-h incubation period at 37 °C, cells were submitted to three successive washes in phosphate buffer saline (PBS) and cell viability was evaluated by two different vital dyes: • i. A first set of cell cultures was incubated in PBS containing 10% WST-1 for 30 min at 37 °C, 5% CO2. Cell viability was evaluated by the assessment of WST-1 absorbance at 450 nm in a microplate spectrophotometer. • ii. A second set of cell cultures was placed into Neutral Red medium (50 μg mL^−1 Neutral Red in complete medium) and incubated for 3 h at 37 °C, 5% CO2. Then the Neutral Red medium was removed and the distaining solution (50% ethanol, 1% acetic acid, 49% distilled water; 50 µL per well) was added into the wells. The plates were shaken for 15–20 min at room temperature in the dark. Cell viability was evaluated by the assessment of absorbance at 540 nm in a microplate spectrophotometer.
Results were expressed as percentages of cell viability about the control (culture medium-only), which corresponded to 100% cell viability. Dose-response curves were calculated by non-linear regression analysis with TableCurve 2D software (V 5.0.1) (Systat Software Inc., San Jose, CA, USA). The Inhibitory Concentration 50% (IC50) was defined as the concentration of compounds that induced a 50% decrease of viable cells.

[6] = system: S. aureus ATCC 25923; experiment: MIC, broth microdilution; type: cell-based, Staphylococcus aureus; settings: Staphylococcus aureus, ATCC25923, 24 h, ATCC strain
Experimental: as §1, §2

[7] = system: S. aureus 340; experiment: MIC, broth microdilution; type: cell-based, Staphylococcus aureus; settings: for MIC: Staphylococcus aureus, 340, 24 h
Experimental: as §1, §2

[8] = system: Gram-positive and Gram-negative human and veterinary reference strains; experiment: MIC against the panel of Gram-positive and Gram-negative reference strains; type: cell-based; settings: for MIC: over several or all of the tested pathogens; for Therapeutic Ratio (TR): IC50 (CHO)/MIC, over several of the tested pathogens
Description: Typically, cytotoxicity was expressed as the half maximal inhibitory concentration (IC50), defined as the concentration of a compound that decreases cell viability by 50% relative to untreated cells. This parameter provides a quantitative measure of a compound’s toxic potential toward mammalian cells. To facilitate data interpretation, we defined the Therapeutic Ratio (TR) as the ratio of IC50 (µg/mL) to MIC (µg/mL). This dimensionless parameter provides a straightforward measure of antibacterial selectivity, allowing direct comparison of cytotoxicity and antibacterial potency. A high TR value indicates compounds with strong antibacterial activity at concentrations far below their cytotoxic threshold, whereas a TR close to unity reflects poor selectivity and limited therapeutic potential. […] Within the Claramine A series, variations in IC50 strongly impacted TR values (Figure 5).
as §1, §2

[9] = system: P. aeruginosa 1051575; experiment: MIC, broth microdilution; type: cell-based, Pseudomonas aeruginosa; settings: Pseudomonas aeruginosa, 1051575, 24 h, 24 h
Experimental: as §1, §2

[10] = system: P. aeruginosa ATCC 27853; experiment: MIC, broth microdilution; type: cell-based, Pseudomonas aeruginosa; settings: Pseudomonas aeruginosa, ATCC27853, 24 h, ATCC strain
Experimental: as §1, §2

[11] = system: S. aureus 340 and P. aeruginosa 1051575; experiment: MIC against S. aureus and P. aeruginosa strains (Figure 6); type: cell-based; settings: range over both strains, C-24 methyl ester series
Experimental: as §1, §2

[12] = Homo sapiens, 24 h, read-out: MIC

Row | Structure (SMILES) | MIC [1] [µg/mL] | MIC [2] [µg/mL] | MIC [3] [µg/mL] | MIC [4] [µg/mL] | IC50 CHO [5] [µg/mL] | IC50 [5] [µg/mL] | MIC [6] [µg/mL] | MIC S. aureus 340 ([7]; 24 h) [µg/mL] | MIC [7] [µg/mL] | MIC [8, 12] [µg/mL] | Therapeutic Ratio (TR) [8] | MIC [8] | MIC [9] [µg/mL] | MIC [10] [µg/mL] | MIC [11] [µg/mL] | MIC ([8]; Homo sapiens, 24 h) [µg/mL]
1 | CC(C)OC(=O)CCC(C)C1CCC2C3CCC4CC(NCCCNCCCCNCCCN)CCC4(C)C3CC(O)C12C (stereo not shown) [Claramine A01, 3-Spermino Isopropyl Deoxycholate] | 4 (≈ 6.46 µM) | 15 (≈ 24.2 µM) | 8 (≈ 12.9 µM) | 30 (≈ 48.5 µM) | 43 (≈ 69.5 µM) | > 35 | 2 (≈ 3.23 µM) | 2 (≈ 3.23 µM) | < 4 | < 15 | > 5 | increased membrane permeabilization and concomitant disruption of proton homeostasis | 15 (≈ 24.2 µM) | 8 (≈ 12.9 µM) |  | 
2 | CC(C)OC(=O)CCC(C)C1CCC2C3CCC4CC(NCCCNCCCNCCCN)CCC4(C)C3CC(O)C12C (stereo not shown) [Claramine A02] | 8 (≈ 13.2 µM) | 15 (≈ 24.8 µM) | 2 (≈ 3.31 µM) | 8 (≈ 13.2 µM) |  | 51 (≈ 84.3 µM) | 4 (≈ 6.61 µM) |  | 2 (≈ 3.31 µM) | < 15 | > 5 |  | 8 (≈ 13.2 µM) | 8 (≈ 13.2 µM) |  | 
3 | CC(C)OC(=O)CCC(C)C1CCC2C3CCC4CC(NCCCNCCCCN)CCC4(C)C3CC(O)C12C (stereo not shown) [Claramine A03] | 14 (≈ 24.9 µM) | 14 (≈ 24.9 µM) | 4 (≈ 7.12 µM) | 14 (≈ 24.9 µM) |  | 73 (≈ 130 µM) | 7 (≈ 12.5 µM) |  | 2 (≈ 3.56 µM) | < 15 | > 5 |  | 14 (≈ 24.9 µM) | 14 (≈ 24.9 µM) |  | 
4 | COC(=O)CCC(C)C1CCC2C3CCC4CC(NCCCNCCCNCCCN)CCC4(C)C3CC(O)C12C (stereo not shown) [Claramine A06] |  |  |  |  |  |  |  |  |  |  |  |  |  |  | 2 to 4 (≈ 3.47 to 6.93 µM) | 
5 | COC(=O)CCC(C)C1CCC2C3CCC4CC(NCCCNCCCN)CCC4(C)C3CC(O)C12C (stereo not shown) [Claramine A08] | 3 (≈ 5.77 µM) | 13 (≈ 25 µM) | 0.4 (≈ 0.77 µM) | 3 (≈ 5.77 µM) |  | 21 (≈ 40.4 µM) | 2 (≈ 3.85 µM) |  | 3 (≈ 5.77 µM) | < 15 | > 5 |  | 3 (≈ 5.77 µM) | 3 (≈ 5.77 µM) |  | 
6 | COC(=O)CCC(C)C1CCC2C3CCC4CC(NCCNCCNCCNCCNCN)CCC4(C)C3CC(O)C12C (stereo not shown) [Claramine A15] | 8 (≈ 13.2 µM) | 14 (≈ 23.1 µM) | 1 (≈ 1.65 µM) | 16 (≈ 26.4 µM) |  | 93 (≈ 153 µM) | 4 (≈ 6.59 µM) |  | 6 (≈ 9.89 µM) | < 15 | > 5 |  | 8 (≈ 13.2 µM) | 8 (≈ 13.2 µM) |  | 
7 | COC(=O)CCC(C)C1CCC2C3CCC4CC(NCCCN5CCN(CCCN)CC5)CCC4(C)C3CC(O)C12C (stereo not shown) [Claramine A18] | 7 (≈ 11.9 µM) |  | 4 (≈ 6.79 µM) | 30 (≈ 50.9 µM) |  | 135 (≈ 229 µM) | 15 (≈ 25.5 µM) |  | 7 (≈ 11.9 µM) | < 15 | > 5 |  | 15 (≈ 25.5 µM) | 15 (≈ 25.5 µM) |  | 
8 | COC(=O)CCC(C)C1CCC2C3C(O)CC4CC(NCCCCCCN)CCC4(C)C3CC(O)C12C (stereo not shown) [Claramine B06] | 7 (≈ 13.4 µM) |  | 2 (≈ 3.84 µM) | 7 (≈ 13.4 µM) | 60 (≈ 115 µM) | > 60 | 3 (≈ 5.76 µM) |  | 3 (≈ 5.76 µM) |  |  |  | 13 (≈ 25 µM) | 13 (≈ 25 µM) |  | 0.7 to 30 (≈ 1.34 to 57.6 µM)
